Test results published in PMC2641037 (Pharmacogenetics and genomics, 2009).
Structures can show the parent of a compound that is named as a salt. Where two headings read alike, the source gives them in different places.

Legend:
Caco-2 cells = details: for Papp±SD of montelukast (% of control) / effect on permeability of montelukast: 125 µM competitor; for Papp±SD of montelukast (% of control) / montelukast permeability, % of control: Caco-2; for Papp±SD of montelukast (% of control): control without additional drug; for effect on permeability of montelukast: Caco-2, p<0.05
OATP2B1 [1] = molecular target: T1, OATP2B1 (Homo sapiens, UniProt O94956); experiment: Permeability in OATP2B1 expressing MDCKII cell line; details: basolateral → apical, pH 7.5, 1 h 37°C
T1 sequence (O94956 1-709): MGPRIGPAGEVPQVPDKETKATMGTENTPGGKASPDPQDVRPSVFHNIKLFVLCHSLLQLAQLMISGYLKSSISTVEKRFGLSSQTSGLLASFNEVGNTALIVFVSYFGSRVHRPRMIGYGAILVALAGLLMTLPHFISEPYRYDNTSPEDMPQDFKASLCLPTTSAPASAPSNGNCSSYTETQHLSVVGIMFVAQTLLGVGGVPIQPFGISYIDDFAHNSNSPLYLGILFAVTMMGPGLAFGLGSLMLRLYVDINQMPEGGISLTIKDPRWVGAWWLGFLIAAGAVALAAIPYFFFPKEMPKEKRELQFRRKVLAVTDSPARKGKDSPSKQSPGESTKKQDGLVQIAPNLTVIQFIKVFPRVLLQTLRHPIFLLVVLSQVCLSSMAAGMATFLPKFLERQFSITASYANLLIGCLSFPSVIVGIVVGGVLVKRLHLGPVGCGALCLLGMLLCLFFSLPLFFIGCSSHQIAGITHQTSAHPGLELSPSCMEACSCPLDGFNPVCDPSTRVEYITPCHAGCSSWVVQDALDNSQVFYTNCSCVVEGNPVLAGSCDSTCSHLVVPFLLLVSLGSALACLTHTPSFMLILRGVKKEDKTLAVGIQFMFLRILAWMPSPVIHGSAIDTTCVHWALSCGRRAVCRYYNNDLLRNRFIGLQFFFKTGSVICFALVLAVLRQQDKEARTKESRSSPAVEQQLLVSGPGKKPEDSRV

[2] = weak acid; cited from earlier work
[3] = can approach; cited from earlier work
MDR1 = MDR1 (Homo sapiens, UniProt P08183); experiment: ATP consumption by membrane preparations containing MDR1; assay type: biochemical; details: data not shown
Sequence of MDR1 (P08183 whole entry, species assumed): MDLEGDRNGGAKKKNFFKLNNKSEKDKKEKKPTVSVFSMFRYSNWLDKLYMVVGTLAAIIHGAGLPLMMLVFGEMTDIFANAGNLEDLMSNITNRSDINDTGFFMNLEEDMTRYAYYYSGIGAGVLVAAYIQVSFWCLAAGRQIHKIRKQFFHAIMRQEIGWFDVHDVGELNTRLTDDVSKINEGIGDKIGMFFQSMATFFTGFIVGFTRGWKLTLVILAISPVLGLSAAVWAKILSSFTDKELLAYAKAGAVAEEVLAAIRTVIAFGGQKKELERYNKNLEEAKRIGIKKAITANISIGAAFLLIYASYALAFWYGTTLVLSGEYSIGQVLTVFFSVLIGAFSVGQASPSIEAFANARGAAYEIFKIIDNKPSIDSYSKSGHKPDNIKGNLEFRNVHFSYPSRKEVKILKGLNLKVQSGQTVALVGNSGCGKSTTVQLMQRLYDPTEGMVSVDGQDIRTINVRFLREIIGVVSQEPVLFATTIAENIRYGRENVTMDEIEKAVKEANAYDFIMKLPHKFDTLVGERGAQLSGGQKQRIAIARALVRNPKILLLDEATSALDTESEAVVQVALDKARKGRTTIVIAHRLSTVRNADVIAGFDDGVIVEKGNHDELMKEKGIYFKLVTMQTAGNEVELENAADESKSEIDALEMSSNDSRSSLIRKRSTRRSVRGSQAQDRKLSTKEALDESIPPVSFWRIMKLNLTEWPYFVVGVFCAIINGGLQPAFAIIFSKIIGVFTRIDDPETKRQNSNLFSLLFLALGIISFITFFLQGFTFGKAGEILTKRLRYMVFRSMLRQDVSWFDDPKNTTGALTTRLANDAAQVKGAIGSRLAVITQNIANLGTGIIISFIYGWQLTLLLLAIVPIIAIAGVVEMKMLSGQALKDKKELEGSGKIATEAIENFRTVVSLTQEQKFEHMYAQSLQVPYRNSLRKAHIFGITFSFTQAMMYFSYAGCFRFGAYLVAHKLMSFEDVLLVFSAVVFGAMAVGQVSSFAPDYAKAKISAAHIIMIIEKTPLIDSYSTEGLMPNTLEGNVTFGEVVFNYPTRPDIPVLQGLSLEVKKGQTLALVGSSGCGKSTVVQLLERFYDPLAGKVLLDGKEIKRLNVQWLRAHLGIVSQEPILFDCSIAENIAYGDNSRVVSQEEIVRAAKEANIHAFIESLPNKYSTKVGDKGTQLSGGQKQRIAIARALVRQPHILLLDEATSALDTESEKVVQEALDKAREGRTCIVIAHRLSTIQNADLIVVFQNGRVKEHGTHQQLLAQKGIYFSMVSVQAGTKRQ

[4] = cited from earlier work
OATP2B1 [5] = details: up; substrate dependent; cited from earlier work

SMILES | Papp±SD of montelukast (% of control) (Caco-2 cells) | effect on permeability of montelukast (Caco-2 cells) | further results
CCCCNc1cc(C(=O)O)cc(S(N)(=O)=O)c1Oc1ccccc1 [Bumetanide, bumetanide] | 100±10 % of control | – | –
C[C@H](CCC(=O)O)[C@H]1CC[C@H]2[C@@H]3[C@H](O)C[C@@H]4C[C@H](O)CC[C@]4(C)[C@H]3CC[C@]12C [Chenodeoxycholic acid, chenodeoxycholic acid, sodium salt] | 90±10 % of control | – | –
CN/C(=N/CCSCc1nc[nH]c1C)NC#N [Cimetidine, cimetidine] | 120±10 % of control | enhance permeability | –
O=S(=O)(O)c1cc(N=C=S)ccc1C=Cc1ccc(N=C=S)cc1S(=O)(=O)O [DIDS, 4,4'-Diisothiocyanostilbene-2,2'-disulfonic acid] | 100±20 % of control | – | –
C[C@H](CCC(=O)O)[C@H]1CC[C@H]2[C@@H]3CC[C@@H]4C[C@H](O)CC[C@]4(C)[C@H]3C[C@H](O)[C@]12C [Deoxycholic acid, deoxycholic acid, sodium salt] | 110±10 % of control | – | –
C[C@]12CC[C@@H]3c4ccc(OS(=O)(=O)[O-])cc4CC[C@H]3[C@@H]1CCC2=O.[Na+] [Estrone 3-sulfate, estrone 3-sulfate, sodium salt] | – | – | enhancement of permeability in OATP2B1 expressing cell line relative to control (OATP2B1 [1]): 280±40%
C=C(CC)C(=O)c1ccc(OCC(=O)O)c(Cl)c1Cl [Ethacrynic acid, ethacrynic acid] | 100±10 % of control | – | –
Nc1nc2ncc(CNc3ccc(C(=O)N[C@@H](CCC(=O)O)C(=O)O)cc3)nc2c(=O)[nH]1 [Folic acid, folic acid] | 130±20 % of control | enhance permeability | –
NS(=O)(=O)c1cc(C(=O)O)c(NCc2ccco2)cc1Cl [Furosemide, furosemide] | 95±8 % of control | – | –
O=c1c(-c2ccc(O)cc2)coc2cc(O)cc(O)c12 [Genistein, genistein] | 110±10 % of control | – | –
CN(C)C(=O)CCSC(SCCC(=O)O)c1cccc(/C=C/c2ccc3ccc(Cl)cc3n2)c1 (stereo not drawn) [MK571, MK571, sodium salt] | 130±10 % of control | enhance permeability | –
CC[C@H](C)C(=O)O[C@H]1C[C@H](O)C=C2C=C[C@H](C)[C@H](CC[C@@H](O)C[C@@H](O)CC(=O)O)[C@H]21 [Pravastatin, pravastatin] | 83±8 % of control | cis-inhibit permeability | –
CCCN(CCC)S(=O)(=O)c1ccc(C(=O)O)cc1 [Probenecid, probenecid] | 90±10 % of control | – | –
O=C1OC(c2ccc(O)c(S(=O)(=O)O)c2)(c2ccc(O)c(S(=O)(=O)O)c2)c2c(Br)c(Br)c(Br)c(Br)c21 [Sulfobromophthalein, sulfobromophthalein] | 72±7 % of control | cis-inhibit permeability | –
C[C@H](CCC(=O)NCCS(=O)(=O)O)[C@H]1CC[C@H]2[C@@H]3[C@H](O)C[C@@H]4C[C@H](O)CC[C@]4(C)[C@H]3C[C@H](O)[C@]12C [Taurocholic acid, taurocholic acid, sodium salt] | 84±9 % of control | cis-inhibit permeability | –
CC(C)(O)c1ccccc1CC[C@@H](SCC1(CC(=O)O)CC1)c1cccc(/C=C/c2ccc3ccc(Cl)cc3n2)c1 [montelukast, Montelukast] | – | – | pKa [2]: 5.7; poor response rate [3]: 60 to 70%; stimulation of ATP consumption by MDR1 membrane preparations (MDR1): does not stimulate ATP consumption; binding to plasma albumin [4]: highly bound; permeability in MDCKII-OATP2B1, % of control (parental MDCKII) (OATP2B1 [1]): 140±20 % of control
CC(=O)[C@H]1CC[C@H]2[C@@H]3CCC4=CC(=O)CC[C@]4(C)[C@H]3CC[C@]12C [progesterone] | – | – | allosteric activation of OATP2B1 transport of estrone-3-sulfate (OATP2B1 [5]): up to 300%; montelukast permeability, % of control (Caco-2 cells; 5 µM progesterone in donor reservoir): 150±10 % of control; montelukast permeability, % of control (Caco-2 cells; 15 µM progesterone in donor reservoir): 140±10 % of control; montelukast permeability, % of control (Caco-2 cells; 30 µM progesterone in donor reservoir): 160±10 % of control
